# Laboratory results from patent publication US5936097A, “4,9-ethano-benzo(F)isoindole derivatives as farnesyl transferase inhibitors” (Rhone-Poulenc Rorer, S.A., priority 1995, dated 1999).
# Like-named read-outs stand apart in the source and are kept apart here.
# Target: T1, human farnesyl transferase (Homo sapiens, UniProt P49354+P49356)
# T1 construct: human farnesyl transferase purified from THP1 cell cultures; endogenous in cells; host or cells: THP1 cell cultures (enzyme purified from the cells)
# Assay: inhibition of farnesyl transferase ((3H) farnesyl transfer from (3H) FPP to p21 H-ras)
# Assay type: biochemical
# Protocol: Farnesyl transferase activity is determined by the amount of (^3 H) farnesyl transferred from (^3 H) farnesylpyrophosphate [(^3 H) FPP] to the p21 H-ras protein. The standard reaction mixture is composed, for a final volume of […], of 50 mM Tris-HCl, 5 mM MgCl2, 5 mM dithiotreitol, 0.2% octyl b-D-glucopyranoside, 200 picomol p21 H-ras, 4.5 picomol (^3 H) FPP (activity 61000 dpm/picomol).
# Reaction is initiated by adding approximately 5 ng of human farnesyl transferase purified from THP1 cell cultures. After incubation for 20 minutes at 37° C. in a microtitration plate containing 96 1-cm^3 wells per plate (Titer Plate®, Beckman), the reaction is stopped by adding 0.4 cm^3 of 0.1% SDS in methanol at 0° C. The mixture is then treated with 0.4 cm^3 of 30% trichloroacetic® acid (TCA) in methanol. The plates are left in ice for 1 hour. The precipitated contents are then retained on Filtermat®, Pharmacia), glass® fibre membranes with the filtration unit (Combi Cell Harvester®, Skatron), and rinsed with 6% trichloroacetic acid in distilled water. The membranes are dried in a microwave oven, then impregnated with scintillation medium by melting of Meltilex® (Pharmacia) under hot air, and lastly counted in cpm in a b-Plate counter® (LKB). Each test is repeated 3 times.
# The unit of activity is defined as 1 picomole of (^3 H) FPP transferred to p21 H-ras in 20 minutes.
# The percentage inhibition values are obtained by comparison of the tests with and without inhibitor after deduction of blanks, the IC50 values being measured on the basis of the inhibitions obtained with 9 different concentrations using Enzfitter® or Grafit® software.
# [1] = human farnesyl transferase purified from THP1 cell cultures, p21 H-ras substrate, 20 minutes at 37° C., 9 concentrations, read-out: in vitro inhibitory activity IC50
IC50 [1],SMILES,IC50
4200 nM,"COc1ccccc1CC(=O)N1C[C@H]2[C@@]3(c4ccccc4)CC[C@H](c4ccccc43)[C@@]2(CC(C(=O)O)C(=O)O)C1 (relative stereo) [Example 24, 2-{(3aRS, 4SR, 9SR, 9aRS)-4,9-ethano-[(2-methoxyphenyl)acetyl]-9-phenyl-1,2,3,3a,9,9a-hexahydro-1H-benzo[f]isoindole-3a-}-methylmalonic acid]",
4900 nM,"COc1ccccc1CC(=O)N1C[C@H]2[C@@]3(c4ccccc4)CC[C@H](c4ccccc43)[C@@]2(NC(=O)CCC(=O)O)C1 (relative stereo) [Example 17, (3aRS, 4SR, 9SR, 9aRS)-4,9-ethano-3a-(3-carboxypropionyl)amino-2-(2-methoxyphenyl)acetyl-9-phenyl-2,3,3a,4,9,9a-hexahydro-1H-benzo[f]isoindole]",
1100 nM,"COc1ccccc1CC(=O)N1C[C@H]2[C@@]3(c4ccccc4)CC[C@H](c4ccccc43)[C@@]2(C(=O)NC(CC(=O)O)C(=O)O)C1 (stereo partly drawn) [Example 6, N-[(3aRS, 4SR, 9SR, 9aRS)-4,9-ethano-2-(2-methoxyphenyl)acetyl-9-phenyl-2,3,3a,4,9,9a-hexahydro-1H-benzo[f]isoindolyl-3a-carbonyl]aspartic acid]",
9100 nM,"COC(=O)CNC(=O)[C@]12CN(C(=O)Cc3ccccc3OC)C[C@H]1[C@@]1(c3ccccc3)CC[C@@H]2c2ccccc21 (relative stereo) [Example 69, methyl ester of N-[(3aRS,4SR,9SR,9aRS)-4,9-ethano-2-(2-methoxyphenyl)acetyl-9-phenyl-2,3,3a,4,9,9a-hexahydro-1H-benzo[f]isoindol-3a-yl]carbonylglycine]",

# The remaining lines, values behind:
SMILES,IC50 [1],IC50
"COc1ccccc1CC(=O)N1C[C@H]2[C@@]3(c4ccccc4)CC[C@H](c4ccccc43)[C@@]2(C(N)=O)C1 (relative stereo) [Example 3, (3aRS, 4SR, 9SR, 9aRS)-4,9-ethano-2-(2-methoxyphenyl)acetyl-9-phenyl-2,3,3a,4,9,9a-hexahydro-1H-benzo[f]isoindole-3a-carboxamide]",4700 nM,
"C=C(C(=O)N1C[C@H]2[C@@]3(c4ccccc4)CC[C@H](c4ccccc43)[C@@]2(C(=O)NC(C#N)c2ccccc2)C1)c1ccccc1OC (stereo partly drawn) [Example 87, (3aS,4R,9R,9aS)-N-[1-(R,S)-1-cyano-1-phenylmethyl]-4,9-ethano-2-[(2-methoxyphenyl)prop-2-en-1-oyl]-9-phenyl-2,3,3a,4,9,9a-hexahydro-1H-benzo[f]isoindole-3a-carboxamide]",250 nM,
"C=C(C(=O)N1C[C@H]2[C@@]3(c4ccccc4)CC[C@H](c4ccccc43)[C@@]2(C(=O)N[C@H](CO)c2ccccc2)C1)c1ccccc1OC [Example 85, (3aS,4R,9R,9aS)-N-[1-(S)-1-phenyl-2-hydroxyethyl]-4,9-ethano-2[-(2-methoxyphenyl)prop-2-en-1-oyl]-9-phenyl-2,3,3a,4,9,9a-hexahydro-1H-benzo[f]isoindole-3a-carboxamide]",260 nM,
"C=C(C(=O)N1C[C@H]2[C@@]3(c4ccccc4)CC[C@H](c4ccccc43)[C@@]2(C(=O)NCc2cccs2)C1)c1ccccc1OC [Example 95, (3aS,4R,9R,9aS)-N-[(2-thienyl)-methyl]-4,9-ethano-2-[(2-methoxyphenyl)prop-2-en-1-oyl]-9-phenyl-2,3,3a,4,9,9a-hexahydro-1H-benzo[f]isoindole-3a-carboxamide]",270 nM,
CSc1ccccc1CC(=O)N1C[C@H]2[C@@]3(c4ccccc4)CC[C@H](c4ccccc43)[C@@]2(C(=O)O)C1 (relative stereo) [Example 30],,600 nM
"Cc1ccccc1CC(=O)N1C[C@@H]2[C@]3(c4ccccc4)CC[C@@H](c4ccccc43)[C@]2(C(=O)O)C1 (relative stereo) [Example 62, (3aRS,4SR,9SR,9aRS)-4,9-Ethano-2-(2-methylphenyl)acetyl-9-phenyl-2,3,3a,4,9,9a-hexahydro-1H-benzo[f]isoindole-3a-carboxylic acid]",,1150 nM
